{"source": "patent US6710066B2", "about": "“Photochemotherapeutic method using 5-aminolevulinic acid and other precursors of endogenous porphyrins” (priority 1989, dated 2004)", "key": {"[1]": {"tested_on": "C. albicans lesions", "experiment": "PpIX fluorescence of intradermal C. albicans lesions in hairless mice given ALA", "type": "in vivo, mouse", "settings": "240 mg/kg ALA intraperitoneal, 3 hours", "description": "The procedure of Giger et al. Infection and Immunity 19 (2) 499-509 (February 1978) was used with the following modifications. A clinical specimen of C. albicans was replated in blood agar so it was actively growing and left at room temperature for 72 hours. The sample was suspended in TSB to McFarland 0.5 turbidity after which a 1.0 ml sample was inoculated into an aerobic culture bottle and left shaking for 24 hours on a 37° C. rotor shaker. A 10 ml sample was withdrawn and centrifuged at […] for 10 minutes to separate the cells from the media. The supernate was discarded and the pellet resuspended in 10 ml of TSB. Serial dilusions (10^−1 to 10^−5) were made in and replicated twice on agar and left to incubate for two days at 37° C. […]\nThree hours prior to their sacrifice, the mice were given 240 mg/kg ALA (10 mg/ml) by intraperitoneal injection, with the exception of mouse #3 which was used as a control. Fluorescence emission spectra on the live mice were taken every 15 minutes (mouse #1 readings every 20 minutes) for 3 hours after injection on each lesion, and at various control areas of the mice—neck skin flap and lateral side opposite the lesion on mouse 5. […] The frozen lesions were sectioned and slides were prepared for spectral analysis or fluorescence microscopy, H and E staining for histology, and Grocott silver stains for fungi identification."}, "[2]": {"tested_on": "P. yoelii", "excerpt": "(A) Infectivity Assay: Mice infected with P. yoelii were given a standard dose of ALA by intraperitoneal injection. Peripheral blood and/or spleen cells were collected after a standard interval, exposed to standard doses of photoactivating light (including a no-light control) and then injected into normal mice.\nFour hours later, its spleen cells were suspended in isotonic saline. Half of the spleen cell suspension was placed on ice and ekxposed to photoactivating light (waveband 600-700 nm, intensity […], total dose 540 J/cm^2), while the other half was kept on ice in the dark. Balb/c mice were injected intraperitoneally with either the light treated or untreated sample. Survival of the mice was followed for 90 days. FIG. 1 illustrates the duration of survival of individual mice following the injection of spleen cells infected with P. yoelii."}, "[3]": {"tested_on": "P. chabaudi", "excerpt": "These examples involve the murine malarial parasites Plasmodium yoelii (lethal strain) and Plasmodium chabaudi (non-lethal strain) as models for human malaria."}, "[4]": {"tested_on": "L. donovani", "experiment": "PpIX accumulation on exposure to exogenous ALA, Leishmania", "settings": "exposed to exogenous ALA"}, "[5]": {"tested_on": "Dermatophyte (Trichophyton Species)"}, "[6]": {"settings": "ALA in vivo, then photoactivating light"}, "[7]": {"settings": "exposed to exogenous ALA, Example 10 list"}, "[8]": {"settings": "ALA by intraperitoneal injection"}}, "data": [{"smiles": "NCC(=O)CCC(=O)O", "note": "[ALA, 5-Amino-4-oxopentanoic acid]", "values": [{"measurement": "PpIX accumulation in primary and secondary lesions", "setting": "[1]", "value": "increased PpIX accumulation relative to the control mice"}, {"measurement": "ability of plasmodia to accumulate calcein from calcein-AM", "setting": "[2]; [6]", "value": "lost their normal ability to accumulate calcein"}, {"measurement": "ability of plasmodia to cause malaria in recipient mice", "setting": "[2]; [6]", "value": "lost their ability to cause malaria when injected into recipient mice"}, {"measurement": "survival of recipients of infected spleen cells", "setting": "[2]; donor 250 mg/kg ALA, cells exposed to photoactivating light 600-700 nm, 540 J/cm^2", "value": "remained in good health for 90 days"}, {"measurement": "average survival of recipients of infected spleen cells", "setting": "[2]; donor 250 mg/kg ALA, cells kept in the dark", "value": 15, "unit": "days"}, {"measurement": "accumulation of photosensitizing concentrations of PpIX", "setting": "[2]; [7]", "value": "ALA-induced photosensitization"}, {"measurement": "PpIX accumulation in non-infected erythrocytes and leukocytes", "setting": "[3]; [8]", "value": "significant concentrations of PpIX did not accumulate"}, {"measurement": "PpIX accumulation in plasmodia within erythrocytes", "setting": "[3]; [8]", "value": "accumulated in many of the plasmodia"}, {"measurement": "ability of plasmodia to accumulate calcein from calcein-AM", "setting": "[3]; [6]", "value": "lost their normal ability to accumulate calcein"}, {"measurement": "ability of plasmodia to cause malaria in recipient mice", "setting": "[3]; [6]", "value": "lost their ability to cause malaria when injected into recipient mice"}, {"measurement": "accumulation of fluorescing concentrations of PpIX", "setting": "[3]; [7]", "value": "ALA-induced fluorescence"}, {"measurement": "accumulation of photosensitizing concentrations of PpIX", "setting": "[3]; [7]", "value": "ALA-induced photosensitization"}, {"measurement": "damage to non-infected erythrocytes and leukocytes", "setting": "[3]; mouse, in vivo", "value": "showed no morphological evidence of damage"}, {"measurement": "accumulation of fluorescing concentrations of PpIX", "setting": "[4]", "value": "ALA-induced fluorescence"}, {"measurement": "appearance of toe upon completion of treatment", "setting": "[5]; human, in vivo", "value": "erythematous and somewhat edematous"}, {"measurement": "subjective response during light exposure", "setting": "[5]; human, in vivo", "value": "itching, stinging, and a sensation of mild burning"}, {"measurement": "clinical outcome of fungal infection", "setting": "[5]; over the next few months after one treatment", "value": "all clinical evidence of the fungal infection vanished"}]}]}
